Measured values taken from patent publication US12227500B2, “Substituted pyrrolo[2,3-b]pyridines for suppressing toxic endoplasmic reticulum stress” (THE TRUSTEES OF COLUMBIA UNIVERSITY IN THE CITY OF NEW YORK, priority 2018, dated 2025).
Like-named read-outs stand apart in the source and are kept apart here.

Key:
Test in all cases: Radiolabeled ATP kinase assay, panel of 371 kinases (Table S6)
Type in all cases: biochemical
[1] = biological target: T1, panel of 371 human kinases (Homo sapiens, UniProt P06493); conditions: 0.1 μM, 10 μM ATP, read-out: % Enzyme Activity (relative to DMSO controls)
T1 construct: purchased Reaction Biology Corp
T1 sequence (P06493 whole entry): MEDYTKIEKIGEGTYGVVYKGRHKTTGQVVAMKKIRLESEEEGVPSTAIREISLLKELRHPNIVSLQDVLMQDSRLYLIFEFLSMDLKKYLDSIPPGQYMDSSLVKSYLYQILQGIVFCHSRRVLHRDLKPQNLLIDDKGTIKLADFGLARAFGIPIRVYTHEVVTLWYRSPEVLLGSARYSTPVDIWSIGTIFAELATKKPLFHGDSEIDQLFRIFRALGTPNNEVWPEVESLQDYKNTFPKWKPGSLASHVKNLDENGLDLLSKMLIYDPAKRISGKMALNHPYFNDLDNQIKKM
Text: (§1) ; FIG. 38C). […]. Further targeted analyses, such as genetic knock-down or knock-out, may be warranted to parse the role of these additional kinases in our model of neurodegeneration.

[2] = biological target: T2, panel of 371 human kinases (Homo sapiens, UniProt P48730); conditions: CK1d; 0.1 μM; 10 μM ATP; read-out: % Enzyme Activity (relative to DMSO controls)
T2 construct: purchased Reaction Biology Corp
T2 sequence (P48730 whole entry): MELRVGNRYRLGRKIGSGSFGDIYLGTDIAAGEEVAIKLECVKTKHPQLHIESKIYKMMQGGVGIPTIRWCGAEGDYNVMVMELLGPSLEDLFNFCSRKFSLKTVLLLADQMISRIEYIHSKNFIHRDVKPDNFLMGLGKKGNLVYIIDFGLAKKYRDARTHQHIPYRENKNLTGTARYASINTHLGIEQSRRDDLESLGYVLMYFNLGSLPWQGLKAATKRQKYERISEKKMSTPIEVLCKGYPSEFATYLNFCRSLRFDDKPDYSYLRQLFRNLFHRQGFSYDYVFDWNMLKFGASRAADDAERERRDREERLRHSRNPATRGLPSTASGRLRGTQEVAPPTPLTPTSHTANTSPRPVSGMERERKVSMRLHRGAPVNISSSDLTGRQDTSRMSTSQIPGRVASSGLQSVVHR
Text: as §1

[3] = biological target: T3, panel of 371 human kinases (Homo sapiens, UniProt P49761); conditions: CLK3; 0.1 μM; 10 μM ATP; read-out: % Enzyme Activity (relative to DMSO controls)
T3 construct: purchased Reaction Biology Corp
T3 sequence (P49761 whole entry): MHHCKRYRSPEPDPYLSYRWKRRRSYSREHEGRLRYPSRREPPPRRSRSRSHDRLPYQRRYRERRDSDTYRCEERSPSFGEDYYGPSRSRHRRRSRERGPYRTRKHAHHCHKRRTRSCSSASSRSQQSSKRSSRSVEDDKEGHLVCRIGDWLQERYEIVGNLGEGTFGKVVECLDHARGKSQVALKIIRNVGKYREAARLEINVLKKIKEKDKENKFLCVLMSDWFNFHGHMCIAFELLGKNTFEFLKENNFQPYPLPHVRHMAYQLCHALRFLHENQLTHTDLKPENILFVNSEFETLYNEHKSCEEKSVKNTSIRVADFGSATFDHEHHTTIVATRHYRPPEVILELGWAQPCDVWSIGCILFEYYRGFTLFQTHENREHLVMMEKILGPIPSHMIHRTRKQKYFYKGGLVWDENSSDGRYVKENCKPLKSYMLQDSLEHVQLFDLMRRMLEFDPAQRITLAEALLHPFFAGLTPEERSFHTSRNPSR
Text: as §1

[4] = biological target: T4, panel of 371 human kinases (Homo sapiens, UniProt Q6XUX3); conditions: RIPK5; 0.1 μM; 10 μM ATP; read-out: % Enzyme Activity (relative to DMSO controls)
T4 construct: purchased Reaction Biology Corp
T4 sequence (Q6XUX3 whole entry): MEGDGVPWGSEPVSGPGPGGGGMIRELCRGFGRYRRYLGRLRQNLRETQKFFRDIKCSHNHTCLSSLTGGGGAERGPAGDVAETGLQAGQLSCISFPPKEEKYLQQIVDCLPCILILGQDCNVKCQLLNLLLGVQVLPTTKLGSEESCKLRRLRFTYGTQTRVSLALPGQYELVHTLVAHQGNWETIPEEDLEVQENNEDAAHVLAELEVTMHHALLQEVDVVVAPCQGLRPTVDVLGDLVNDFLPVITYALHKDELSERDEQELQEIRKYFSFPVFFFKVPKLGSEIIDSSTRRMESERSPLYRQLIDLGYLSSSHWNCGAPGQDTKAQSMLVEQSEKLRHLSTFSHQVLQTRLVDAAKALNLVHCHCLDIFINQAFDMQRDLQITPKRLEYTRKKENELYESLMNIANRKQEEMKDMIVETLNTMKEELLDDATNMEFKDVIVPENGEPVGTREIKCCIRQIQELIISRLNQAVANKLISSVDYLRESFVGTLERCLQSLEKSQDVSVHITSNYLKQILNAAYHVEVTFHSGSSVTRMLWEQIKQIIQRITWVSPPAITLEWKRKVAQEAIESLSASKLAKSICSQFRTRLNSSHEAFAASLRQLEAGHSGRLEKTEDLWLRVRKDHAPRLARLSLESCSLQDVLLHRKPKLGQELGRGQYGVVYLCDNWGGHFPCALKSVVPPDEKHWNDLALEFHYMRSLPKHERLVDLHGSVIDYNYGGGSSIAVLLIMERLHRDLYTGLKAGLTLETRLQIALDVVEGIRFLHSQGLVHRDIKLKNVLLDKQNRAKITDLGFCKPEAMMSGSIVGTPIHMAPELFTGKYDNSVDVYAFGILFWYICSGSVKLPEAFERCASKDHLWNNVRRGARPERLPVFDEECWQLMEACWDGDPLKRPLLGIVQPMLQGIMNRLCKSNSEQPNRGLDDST
Text: as §1

[5] = biological target: T5, panel of 371 human kinases (Homo sapiens, UniProt P23458); conditions: JAK1; 0.1 μM; 10 μM ATP; read-out: % Enzyme Activity (relative to DMSO controls)
T5 construct: purchased Reaction Biology Corp
Text: as §1

[6] = biological target: T6, panel of 371 human kinases (Homo sapiens, UniProt Q8N752); conditions: CK1a1L; 0.1 μM; 10 μM ATP; read-out: % Enzyme Activity (relative to DMSO controls)
T6 construct: purchased Reaction Biology Corp
Text: as §1

[7] = biological target: T7, panel of 371 human kinases (Homo sapiens, UniProt Q56UN5); conditions: VSK4/MAP3K19; 0.1 μM; 10 μM ATP; read-out: % Enzyme Activity (relative to DMSO controls)
T7 construct: purchased Reaction Biology Corp
T7 sequence (Q56UN5 whole entry): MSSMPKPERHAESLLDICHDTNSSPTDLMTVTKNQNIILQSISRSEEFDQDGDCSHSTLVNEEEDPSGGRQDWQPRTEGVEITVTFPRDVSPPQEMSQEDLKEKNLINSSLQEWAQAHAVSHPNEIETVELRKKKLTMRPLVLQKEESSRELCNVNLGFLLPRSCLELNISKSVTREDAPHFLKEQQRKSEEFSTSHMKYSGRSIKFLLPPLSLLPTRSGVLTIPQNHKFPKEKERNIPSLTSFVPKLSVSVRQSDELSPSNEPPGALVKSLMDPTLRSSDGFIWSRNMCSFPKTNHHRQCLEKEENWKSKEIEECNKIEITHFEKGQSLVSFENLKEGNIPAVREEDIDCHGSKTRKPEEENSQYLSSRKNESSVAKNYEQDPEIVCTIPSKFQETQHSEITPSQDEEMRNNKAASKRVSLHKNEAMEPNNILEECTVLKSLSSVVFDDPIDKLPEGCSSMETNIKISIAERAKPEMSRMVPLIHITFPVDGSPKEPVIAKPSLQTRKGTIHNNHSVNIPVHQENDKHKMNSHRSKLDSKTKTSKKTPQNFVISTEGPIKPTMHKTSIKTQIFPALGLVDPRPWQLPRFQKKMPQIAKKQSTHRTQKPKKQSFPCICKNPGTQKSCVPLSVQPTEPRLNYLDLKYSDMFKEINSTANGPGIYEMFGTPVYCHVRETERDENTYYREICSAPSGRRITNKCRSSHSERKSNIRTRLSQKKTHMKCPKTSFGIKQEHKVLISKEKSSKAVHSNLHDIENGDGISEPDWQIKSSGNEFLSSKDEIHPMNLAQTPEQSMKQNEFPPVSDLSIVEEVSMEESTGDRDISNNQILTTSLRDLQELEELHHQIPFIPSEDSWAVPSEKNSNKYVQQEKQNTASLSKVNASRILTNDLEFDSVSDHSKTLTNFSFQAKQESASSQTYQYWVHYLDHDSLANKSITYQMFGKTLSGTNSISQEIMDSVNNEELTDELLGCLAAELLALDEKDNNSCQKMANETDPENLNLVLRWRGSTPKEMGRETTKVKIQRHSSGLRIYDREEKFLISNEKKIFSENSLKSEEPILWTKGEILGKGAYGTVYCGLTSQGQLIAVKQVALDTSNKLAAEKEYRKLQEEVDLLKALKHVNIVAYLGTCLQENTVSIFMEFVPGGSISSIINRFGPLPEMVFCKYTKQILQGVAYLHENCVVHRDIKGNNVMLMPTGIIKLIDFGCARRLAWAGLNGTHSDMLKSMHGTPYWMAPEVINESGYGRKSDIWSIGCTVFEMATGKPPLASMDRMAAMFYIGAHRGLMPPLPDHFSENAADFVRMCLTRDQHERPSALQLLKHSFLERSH
Text: as §1

[8] = biological target: T8, panel of 371 human kinases (Homo sapiens, UniProt Q13464); conditions: ROCK1; 0.1 μM; 10 μM ATP; read-out: % Enzyme Activity (relative to DMSO controls)
T8 construct: purchased Reaction Biology Corp
Text: as §1

[9] = biological target: T9, panel of 371 human kinases (Homo sapiens, UniProt P11309); conditions: PIM1; 0.1 μM; 10 μM ATP; read-out: % Enzyme Activity (relative to DMSO controls)
T9 construct: purchased Reaction Biology Corp
T9 sequence (P11309 whole entry): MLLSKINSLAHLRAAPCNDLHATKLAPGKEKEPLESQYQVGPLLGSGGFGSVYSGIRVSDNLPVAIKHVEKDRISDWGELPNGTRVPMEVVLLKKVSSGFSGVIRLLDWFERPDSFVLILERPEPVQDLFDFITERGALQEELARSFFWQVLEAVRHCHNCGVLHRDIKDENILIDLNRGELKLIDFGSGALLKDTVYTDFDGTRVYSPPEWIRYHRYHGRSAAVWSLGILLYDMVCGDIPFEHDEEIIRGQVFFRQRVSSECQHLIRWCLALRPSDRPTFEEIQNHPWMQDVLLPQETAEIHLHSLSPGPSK
Text: as §1

[10] = biological target: T10, panel of 371 human kinases (Homo sapiens, UniProt Q06187); conditions: BTK; 0.1 μM; 10 μM ATP; read-out: % Enzyme Activity (relative to DMSO controls)
T10 construct: purchased Reaction Biology Corp
Text: as §1

[11] = biological target: T11, panel of 371 human kinases (Homo sapiens, UniProt Q8N5S9); conditions: CAMKK1; 0.1 μM; 10 μM ATP; read-out: % Enzyme Activity (relative to DMSO controls)
T11 construct: purchased Reaction Biology Corp
Text: as §1

[12] = biological target: T12, panel of 371 human kinases (Homo sapiens, UniProt Q00526); conditions: 0.1 μM, 10 μM ATP, read-out: % Enzyme Activity (relative to DMSO controls)
T12 construct: purchased Reaction Biology Corp
T12 sequence (Q00526 whole entry): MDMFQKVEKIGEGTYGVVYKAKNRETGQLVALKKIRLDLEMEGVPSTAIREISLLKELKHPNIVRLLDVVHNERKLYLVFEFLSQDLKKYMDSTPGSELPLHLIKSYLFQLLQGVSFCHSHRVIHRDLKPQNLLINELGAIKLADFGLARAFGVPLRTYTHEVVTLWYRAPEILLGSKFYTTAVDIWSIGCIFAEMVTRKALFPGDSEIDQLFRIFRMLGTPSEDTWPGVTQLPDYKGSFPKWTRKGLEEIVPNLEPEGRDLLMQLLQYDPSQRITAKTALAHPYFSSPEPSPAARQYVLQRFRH
Text: as §1

[13] = biological target: T13, panel of 371 human kinases (Homo sapiens, UniProt Q05513); conditions: PKCzeta; 0.1 μM; 10 μM ATP; read-out: % Enzyme Activity (relative to DMSO controls)
T13 construct: purchased Reaction Biology Corp
Text: as §1

[14] = biological target: T14, panel of 371 human kinases (Homo sapiens, UniProt P22612); conditions: PKAcg; 0.1 μM; 10 μM ATP; read-out: % Enzyme Activity (relative to DMSO controls)
T14 construct: purchased Reaction Biology Corp
T14 sequence (P22612 whole entry): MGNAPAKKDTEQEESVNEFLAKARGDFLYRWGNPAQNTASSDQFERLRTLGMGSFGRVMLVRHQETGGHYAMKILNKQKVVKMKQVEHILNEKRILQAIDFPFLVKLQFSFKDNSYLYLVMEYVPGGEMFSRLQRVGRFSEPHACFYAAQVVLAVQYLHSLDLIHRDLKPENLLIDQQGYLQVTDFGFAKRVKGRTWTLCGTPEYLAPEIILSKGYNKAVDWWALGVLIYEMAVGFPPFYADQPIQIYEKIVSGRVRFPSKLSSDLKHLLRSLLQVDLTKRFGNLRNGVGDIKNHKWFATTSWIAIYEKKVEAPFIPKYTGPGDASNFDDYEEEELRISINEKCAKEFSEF
Text: as §1

[15] = biological target: T15, panel of 371 human kinases (Homo sapiens, UniProt P51817); conditions: PRKX; 0.1 μM; 10 μM ATP; read-out: % Enzyme Activity (relative to DMSO controls)
T15 construct: purchased Reaction Biology Corp
T15 sequence (P51817 whole entry): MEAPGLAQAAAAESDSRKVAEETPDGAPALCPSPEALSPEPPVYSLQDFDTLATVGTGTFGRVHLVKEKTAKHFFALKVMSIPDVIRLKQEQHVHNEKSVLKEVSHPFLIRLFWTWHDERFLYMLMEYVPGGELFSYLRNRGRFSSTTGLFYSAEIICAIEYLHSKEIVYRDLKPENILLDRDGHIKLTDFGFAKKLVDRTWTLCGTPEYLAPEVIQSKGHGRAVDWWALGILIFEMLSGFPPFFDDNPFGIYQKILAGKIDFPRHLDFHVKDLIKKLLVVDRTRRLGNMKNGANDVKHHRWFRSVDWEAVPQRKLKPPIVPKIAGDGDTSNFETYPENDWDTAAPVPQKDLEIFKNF
Text: as §1

[16] = biological target: T16, panel of 371 human kinases (Homo sapiens, UniProt Q08345); conditions: DDR1; 0.1 μM; 10 μM ATP; read-out: % Enzyme Activity (relative to DMSO controls)
T16 construct: purchased Reaction Biology Corp
Text: as §1

[17] = biological target: T17, panel of 371 human kinases (Homo sapiens, UniProt P17612); conditions: PKA; 0.1 μM; 10 μM ATP; read-out: % Enzyme Activity (relative to DMSO controls)
T17 construct: purchased Reaction Biology Corp
Text: as §1

[18] = biological target: T18, panel of 371 human kinases (Homo sapiens, UniProt P22455); conditions: FGFR4; 0.1 μM; 10 μM ATP; read-out: % Enzyme Activity (relative to DMSO controls)
T18 construct: purchased Reaction Biology Corp
Text: as §1

[19] = biological target: T19, panel of 371 human kinases (Homo sapiens, UniProt Q9UM73); conditions: ALK; 0.1 μM; 10 μM ATP; read-out: % Enzyme Activity (relative to DMSO controls)
T19 construct: purchased Reaction Biology Corp
Text: as §1

[20] = biological target: T20, panel of 371 human kinases (Homo sapiens, UniProt P51451); conditions: BLK; 0.1 μM; 10 μM ATP; read-out: % Enzyme Activity (relative to DMSO controls)
T20 construct: purchased Reaction Biology Corp
Text: as §1

[21] = biological target: T21, panel of 371 human kinases (Homo sapiens, UniProt Q13164); conditions: ERK5/MAPK7; 0.1 μM; 10 μM ATP; read-out: % Enzyme Activity (relative to DMSO controls)
T21 construct: purchased Reaction Biology Corp
Text: as §1

[22] = biological target: T22, panel of 371 human kinases (Homo sapiens, UniProt P36507); conditions: MEK2; 0.1 μM; 10 μM ATP; read-out: % Enzyme Activity (relative to DMSO controls)
T22 construct: purchased Reaction Biology Corp
Text: as §1

[23] = biological target: T23, panel of 371 human kinases (Homo sapiens, UniProt Q9H2X6); conditions: HIPK2; 0.1 μM; 10 μM ATP; read-out: % Enzyme Activity (relative to DMSO controls)
T23 construct: purchased Reaction Biology Corp
Text: as §1

[24] = biological target: T24, panel of 371 human kinases (Homo sapiens, UniProt Q6IQ55); conditions: TTBK2; 0.1 μM; 10 μM ATP; read-out: % Enzyme Activity (relative to DMSO controls)
T24 construct: purchased Reaction Biology Corp
Text: as §1

Row | Structure (SMILES) | remaining activity at 0.1 µM ([1]; CDK1/cyclin A) | remaining activity at 0.1 µM ([1]; CDK1/cyclin B) | remaining activity at 0.1 µM ([1]; CDK1/cyclin E) | remaining activity at 0.1 µM [2] | remaining activity at 0.1 µM [3] | remaining activity at 0.1 µM [4] | remaining activity at 0.1 µM [5] | remaining activity at 0.1 µM [6] | remaining activity at 0.1 µM [7] | remaining activity at 0.1 µM [8] | remaining activity at 0.1 µM [9] | remaining activity at 0.1 µM [10] | remaining activity at 0.1 µM [11] | remaining activity at 0.1 µM ([12]; CDK3/cyclin E2) | remaining activity at 0.1 µM ([12]; CDK3/cyclin E) | remaining activity at 0.1 µM [13] | remaining activity at 0.1 µM [14] | remaining activity at 0.1 µM [15] | remaining activity at 0.1 µM [16] | remaining activity at 0.1 µM [17] | also measured
1 | CN1CCN(Cc2ccc(-c3cnc4[nH]cc(-c5ccc6[nH]ccc6c5)c4c3)cc2)CC1 [Compound 1, 3-(1H-Indol-5-yl)-5-(4-((4-methylpiperazin-1-yl)methyl)phenyl)-1H-pyrrolo[2,3-b]pyridine, reference compound] | 95.1% | 96.5% | 98.7% | 90% | 95.3% | 75.6% | 103% | 94.8% | 101% | 94.7% | 93.2% | 103% | 103% | 92.6% | 92.9% | 93.6% | 102% | 95.5% | 89.9% | 104% | remaining activity at 0.1 µM [18]: 97.2%; remaining activity at 0.1 µM [19]: 73.8%; remaining activity at 0.1 µM [20]: 99.5%; remaining activity at 0.1 µM [21]: 102%; remaining activity at 0.1 µM [22]: 86.7%; remaining activity at 0.1 µM [23]: 110%; remaining activity at 0.1 µM [24]: 101%
2 | OCCN1CCN(Cc2ccc(-c3cnc4[nH]cc(-c5cccc(Cl)c5)c4c3)cc2)CC1 [Compound 12k, 2-(4-(4-(3-(3-Chlorophenyl)-1H-pyrrolo[2,3-b]pyridin-5-yl)benzyl)piperazin-1-yl)ethan-1-ol] | 79.9% | 84.9% | 91.1% | 92.8% | 91% | 73.4% | 90.5% | 107% | 107% | 79.2% | 98.5% | 99.7% | 102% | 90.2% | 97% | 97.7% | 99.4% | 96.1% | 86.6% | 94.5% | remaining activity at 0.1 µM [18]: 100%; remaining activity at 0.1 µM [19]: 85.3%; remaining activity at 0.1 µM [20]: 101%; remaining activity at 0.1 µM [21]: 113%; remaining activity at 0.1 µM [22]: 93.1%; remaining activity at 0.1 µM [23]: 95.7%; remaining activity at 0.1 µM [24]: 103%
